A short description of one series: physchem. It counts as physicochemical. As to conditions: shake flask, n-octanol/water, 25 °C, 1 × 10^−4 M; read-out: logP, experimentally obtained. As to the method: To measure the lipophilicity (expressed as the partition coefficient) of the synthesized compounds and their constituents, using a “shake-flask” method, a two-phase system composed of n-octanol and deionized water was used. The stock solutions of the compounds were diluted with water to the concentration of 1 × 10^−4 M, and this solution was used for further investigation. […] The concentration of the compounds was calculated from their extinction coefficient at 260 nm that was previously determined.

The nature of series [1]: DPPH radical scavenging assay. As to conditions: for antioxidative ability (DPPH): 0.01, 0.1 and 1 mM, 30 min; for IC50: 30 min incubation, 25 °C. The protocol: DPPH (2,2-diphenyl-1-picrylhydrazyl) radical scavenging assay was used to assess free-radical scavenging activity of synthesized compounds. Initially, 1 × 10^−4 M working solution of DPPH was prepared, and 350 µL was added to 350 µL of the solution of each compound. The final concentrations of the compounds (Q, 2a, and 2b) in the samples were 1 × 10^−3 M, 1 × 10^−4 M, and 1 × 10^−5 M. The control included ethanol only and DPPH–ethanol solution without compounds. The mixtures were incubated at 25 °C in the dark for 30 min. After incubation, the absorbance of the samples at 517 nm was measured in duplicate by using a UV/Vis spectrophotometer (Lambda 35, Perkin Elmer, Waltham, MA, USA). The DPPH radical scavenging ability was calculated using the following equation:(1) Antioxidative activity(%)=Acontrol−Asample/Acontrol×100% where Asample and Acontrol represent the absorbance at 517 nm of the sample and control, respectively. All samples were analysed in duplicate.
In general terms: The DPPH test is a chemical assay of radical scavenging.

The target in the next series is eeAChE (Electrophorus electricus, UniProt O42275). As to the kind of experiment: biochemical. As to conditions: read-out: Percentage Inhibition AChE. As to the method: The abilities of compounds to inhibit AChE and BuChE activity were determined following Ellman’s procedure, with AChI and BuChI as the enzyme substrate, respectively, and DTNB as a chromogenic reagent. AChE’s and BuChE’s working solutions were prepared at 20 mM TRIS and deionized water, respectively. AChI and BuChI solutions were prepared in deionized water. […] Stock solutions (10 mM) of investigated compounds were prepared daily by dissolving solid compounds in DMSO. The reaction mixture containing phosphate buffer, DTNB, enzyme, and compound was preincubated 30 min at 37 °C. After the preincubation time, the enzyme reaction was initiated by adding appropriate substrate and left to incubate for 6 min. After incubation, 0.1 M SDS was added to stop the reaction. […] A blank assay, containing all components except the enzyme, was used to account for non-enzyme reactions. The control solution contained all components except the inhibitor. All experiments were conducted in triplicate, and the results are expressed as the mean percentage enzyme activity compared to the control value. IC50 values were determined graphically using Origin 9 Microsoft Windows.
Sequence of eeAChE (O42275 24-633): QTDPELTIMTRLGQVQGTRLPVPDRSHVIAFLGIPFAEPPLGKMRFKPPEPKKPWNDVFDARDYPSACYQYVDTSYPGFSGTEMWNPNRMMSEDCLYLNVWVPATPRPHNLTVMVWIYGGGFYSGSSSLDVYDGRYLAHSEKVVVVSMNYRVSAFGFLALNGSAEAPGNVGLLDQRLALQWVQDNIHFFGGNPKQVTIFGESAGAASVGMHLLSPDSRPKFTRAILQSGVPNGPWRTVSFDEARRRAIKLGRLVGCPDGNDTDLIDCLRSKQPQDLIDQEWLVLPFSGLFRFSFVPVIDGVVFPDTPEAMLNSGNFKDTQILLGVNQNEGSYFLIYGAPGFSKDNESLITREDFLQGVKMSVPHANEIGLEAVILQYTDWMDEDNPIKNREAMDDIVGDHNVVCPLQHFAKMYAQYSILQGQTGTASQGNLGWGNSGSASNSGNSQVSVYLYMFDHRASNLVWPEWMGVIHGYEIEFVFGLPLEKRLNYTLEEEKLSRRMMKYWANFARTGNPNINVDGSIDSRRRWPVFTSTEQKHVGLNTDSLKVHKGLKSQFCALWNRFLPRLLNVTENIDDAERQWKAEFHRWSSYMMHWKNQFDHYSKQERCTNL

For a further series, the target named is eqBuChE (Equus caballus, UniProt P81908). As to the kind of experiment: BuChE inhibition (Ellman's procedure). Format: biochemical. The settings on record: for inhibition at 100 µM: read-out: Percentage Inhibition BuChE. As to the method: The abilities of compounds to inhibit AChE and BuChE activity were determined following Ellman’s procedure, with AChI and BuChI as the enzyme substrate, respectively, and DTNB as a chromogenic reagent. AChE’s and BuChE’s working solutions were prepared at 20 mM TRIS and deionized water, respectively. AChI and BuChI solutions were prepared in deionized water. A 0.01 M DTNB solution was prepared with 0.1 M phosphate buffer (pH 7) containing 0.15% (w/v) sodium bicarbonate. Stock solutions (10 mM) of investigated compounds were prepared daily by dissolving solid compounds in DMSO. The reaction mixture containing phosphate buffer, DTNB, enzyme, and compound was preincubated 30 min at 37 °C. After the preincubation time, the enzyme reaction was initiated by adding appropriate substrate and left to incubate for 6 min. After incubation, 0.1 M SDS was added to stop the reaction. Absorbance measurements were performed using a UV/Vis spectrophotometer (Lambda 35, Perkin Elmer), measuring absorbance at 412 nm. A blank assay, containing all components except the enzyme, was used to account for non-enzyme reactions. The control solution contained all components except the inhibitor. All experiments were conducted in triplicate, and the results are expressed as the mean percentage enzyme activity compared to the control value. IC50 values were determined graphically using Origin 9 Microsoft Windows.
Sequence of eqBuChE (P81908 whole entry): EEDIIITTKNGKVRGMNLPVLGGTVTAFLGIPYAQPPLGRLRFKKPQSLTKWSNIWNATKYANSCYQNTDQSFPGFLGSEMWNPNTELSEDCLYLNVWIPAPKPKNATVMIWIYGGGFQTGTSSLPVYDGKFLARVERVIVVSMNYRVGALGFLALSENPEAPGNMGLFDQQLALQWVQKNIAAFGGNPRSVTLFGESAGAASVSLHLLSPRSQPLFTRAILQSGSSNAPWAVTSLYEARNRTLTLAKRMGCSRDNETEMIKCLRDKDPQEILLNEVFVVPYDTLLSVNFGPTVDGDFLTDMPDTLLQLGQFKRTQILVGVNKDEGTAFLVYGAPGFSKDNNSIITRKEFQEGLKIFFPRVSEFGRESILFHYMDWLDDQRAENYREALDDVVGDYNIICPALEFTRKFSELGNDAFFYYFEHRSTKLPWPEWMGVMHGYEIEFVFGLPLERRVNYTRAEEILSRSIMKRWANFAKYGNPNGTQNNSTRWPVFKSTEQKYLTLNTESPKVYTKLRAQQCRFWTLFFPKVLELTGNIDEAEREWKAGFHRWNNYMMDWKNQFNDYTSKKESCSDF
Background: DTNB colorimetry detects thiols as they appear.

A further series concerns MRC-5 cells. As to the kind of experiment: SRB assay, MRC-5 cells. Format: cell-based. As to conditions: Homo sapiens, MRC5, 72 h, read-out: IC50 MRC. The protocol:
(§1) Two human breast cancer cell lines, MDA-MB-231 (HTB-26) and MDA-MB-468 (HTB-132), human cervical cancer cell line HeLa (CCL-2), and MRC-5 (CCL-171) fibroblasts were purchased from the American Type Culture Collection (ATCC, Manassas, VA, USA). All cell lines were cultured in Dulbecco’s Modified Eagle’s Medium (DMEM) with 4500 mg/L glucose and L-glutamine (Capricorn Scientific, Ebsdorfergrund, Germany), supplemented with 10% foetal bovine serum (PAN-Biotech, Aidenbach, Germany), 10,000 U/mL penicillin, and 10 mg/mL streptomycin solution (Capricorn Scientific) under standard conditions at 37 °C in a humidified 5% CO2 atmosphere (ESCO, Lifesciences Group, Singapore).
Cells were seeded on a 96-well plate (Thermo Fisher Scientific, Waltham, MA, USA) at 2 × 10^3 cells per well in DMEM medium. For the analysis of the concentration- and time-dependent effect of the analysed compounds, cell monolayers were treated 24 h after seeding with concentrations 1 × 10^−6, 1 × 10^−5, and 1 × 10^−4 M for 24, 48, or 72 h. Cell viability was detected using sulforhodamine B (SRB) assay, based on the staining of cellular proteins. The assay was performed according to the procedure described by Skehan et al.. The cells were fixed with 10% trichloroacetic acid (TCA, CARLO ERBA Reagents GmbH, Emmendingen, Germany) for 1 h at 4 °C, washed with water, and stained for 15 min with 0.4% SRB (Sigma-Aldrich Chemie GmbH, Steinheim, Germany) in 1% acetic acid. The unbound SRB dye was rinsed with 1% acetic acid, while the protein-bound dye was extracted with a 10 mM Tris base (Sigma-Aldrich). The absorbance was measured at 550 nm with a reference wavelength of 690 nm in a microplate reader (Wallac, VICTOR2 1420 Multilabel counter, PerkinElmer, Turku, Finland). The results were expressed as a percentage of the control, where the cell growth of the control is set to 100%. […] The selectivity index (SI) was determined according to the following formula:(2) SI=IC50 for fibroblast cell line/IC50 for tumour cell line […]

Another series has as its system HeLa cells. In words: SRB assay, HeLa cells. Format: cell-based. As to conditions: Homo sapiens, HeLa, 72 h, read-out: IC50 HeLa. The protocol:
(§2) All cell lines were cultured in Dulbecco’s Modified Eagle’s Medium (DMEM) with 4500 mg/L glucose and L-glutamine (Capricorn Scientific, Ebsdorfergrund, Germany), supplemented with 10% foetal bovine serum (PAN-Biotech, Aidenbach, Germany), 10,000 U/mL penicillin, and 10 mg/mL streptomycin solution (Capricorn Scientific) under standard conditions at 37 °C in a humidified 5% CO2 atmosphere (ESCO, Lifesciences Group, Singapore).
(§3) Cells were seeded on a 96-well plate (Thermo Fisher Scientific, Waltham, MA, USA) at 2 × 10^3 cells per well in DMEM medium. For the analysis of the concentration- and time-dependent effect of the analysed compounds, cell monolayers were treated 24 h after seeding with concentrations 1 × 10^−6, 1 × 10^−5, and 1 × 10^−4 M for 24, 48, or 72 h. Cell viability was detected using sulforhodamine B (SRB) assay, based on the staining of cellular proteins. The assay was performed according to the procedure described by Skehan et al.. The cells were fixed with 10% trichloroacetic acid (TCA, CARLO ERBA Reagents GmbH, Emmendingen, Germany) for 1 h at 4 °C, washed with water, and stained for 15 min with 0.4% SRB (Sigma-Aldrich Chemie GmbH, Steinheim, Germany) in 1% acetic acid. The unbound SRB dye was rinsed with 1% acetic acid, while the protein-bound dye was extracted with a 10 mM Tris base (Sigma-Aldrich). […] The results were expressed as a percentage of the control, where the cell growth of the control is set to 100%. […] The selectivity index (SI) was determined according to the following formula:(2) SI=IC50 for fibroblast cell line/IC50 for tumour cell line
(§4) The assay was performed two times in 4 replicates for every experimental group. The statistical significance of differences between treated and untreated cells was estimated by the independent Student’s t-test, with the level of significance set at p < 0.05.
For orientation: In SRB staining, fixed cells bind dye roughly in proportion to their protein.

The test system of a further series is MDA-MB-231 cells. As to the kind of experiment: SRB assay, MDA-MB-231 cells. It counts as cell-based. The settings on record: Homo sapiens, MDA-MB-231, 72 h, read-out: IC50 MDA-231. As to the method: as §2, §3, §4
The subject of the next series is MDA-MB-468 cells. In words: SRB assay, MDA-MB-468 cells. The settings on record: Homo sapiens, MDA-MB-468, 72 h, read-out: IC50 MDA-468. Format: cell-based, human. The protocol:
as §1
Cells were seeded on a 96-well plate (Thermo Fisher Scientific, Waltham, MA, USA) at 2 × 10^3 cells per well in DMEM medium. For the analysis of the concentration- and time-dependent effect of the analysed compounds, cell monolayers were treated 24 h after seeding with concentrations 1 × 10^−6, 1 × 10^−5, and 1 × 10^−4 M for 24, 48, or 72 h. Cell viability was detected using sulforhodamine B (SRB) assay, based on the staining of cellular proteins. The assay was performed according to the procedure described by Skehan et al.. The cells were fixed with 10% trichloroacetic acid (TCA, CARLO ERBA Reagents GmbH, Emmendingen, Germany) for 1 h at 4 °C, washed with water, and stained for 15 min with 0.4% SRB (Sigma-Aldrich Chemie GmbH, Steinheim, Germany) in 1% acetic acid. The unbound SRB dye was rinsed with 1% acetic acid, while the protein-bound dye was extracted with a 10 mM Tris base (Sigma-Aldrich). The absorbance was measured at 550 nm with a reference wavelength of 690 nm in a microplate reader (Wallac, VICTOR2 1420 Multilabel counter, PerkinElmer, Turku, Finland). The results were expressed as a percentage of the control, where the cell growth of the control is set to 100%. IC50, defined as the concentration that caused a 50% loss of cell growth, was calculated by non-linear regression analysis with the ED50plus v1.0 software. The selectivity index (SI) was determined according to the following formula:(2) SI=IC50 for fibroblast cell line/IC50 for tumour cell line
as §4

The target of a further series is Na^+, K^+-ATPase. As to conditions: cited from earlier work.

Molecules are shown by their SMILES. Read-outs that look alike come from different tables or passages of the source.

A word on the logP: it is a log measure of how a compound divides between an organic and an aqueous phase. As usually defined, the inhibition is the change of the read-out against control, counted positive when it falls. A word on the IC50: it is the concentration needed to halve the response being measured.

On to `COc1cc2c(cc1OC)CNCC2` [Compound 1b, 6,7-dimethoxy-1,2,3,4-tetrahydroisoquinoline, reference compound], for which, in the series “physchem”, the logP at 30 min stood at 1.14. Also, the “antioxidative ability (DPPH)” value in [1] was “did not show antioxidative ability”. In addition, the inhibition at 100 µM on eeAChE came out at 14.1%; on eqBuChE, 17.7%.

For the compound `O=c1c(O)c(-c2ccc(O)c(O)c2)oc2cc(O)cc(O)c12` [Quercetin, reference compound], the half-maximal inhibitory concentration (IC50) in series [1] came to 19.3 µM; against eqBuChE, 22.1 µM; with MRC-5 cells it was 10.4 ± 0.52 µM; in the series on HeLa cells, 15.1 ± 2.67 µM; in the series on MDA-MB-231 cells it was 76.6 ± 3.8 µM; in the series on MDA-MB-468 cells, 65.9 ± 3.3 µM. Besides, the IC50 on Na^+, K^+-ATPase (literature value ref 36) was 46.3 µM. Moreover, the results for the inhibition at 100 µM at eeAChE and on eqBuChE were 58% and 72%, respectively.

For the compound `O=C1O[C@H]([C@@H](O)CO)C(O)=C1O` [Ascorbic acid], in series [1], the IC50 amounted to 0.62 µM.

In the case of `c1ccc2c(c1)CCNC2` [Compound 1a, 1,2,3,4-tetrahydroisoquinoline, reference compound], in “physchem”, the logP at 30 min stood at 1.4. In addition, in [1], the “antioxidative ability (DPPH)” value was “did not show antioxidative ability”. In addition, the inhibition at 100 µM on eeAChE and on eqBuChE was 2% throughout. In addition, the IC50 at Na^+, K^+-ATPase (literature value ref 35) is 25000 µM.

Source of the values: PMC12068008 (International Journal of Molecular Sciences, 2024).
